Series [1] in a line: Hydrolytic stability of Compound (4) in Britton-Robinson buffer at pH 5, 7.4 and 9. In kind it is physicochemical. As to conditions: 10 μM. The protocol: (§1) Following this set of experiments, we subjected Compound (4) to acidic (pH 5) and alkaline (pH 9) conditions to account for the various pH gradients in the body. For these experiments we used the Britton-Robinson buffer system. […] These include lipase, human carboxyesterase-2, monoacylglycerol lipase, fatty acid amide hydrolase, and aldehyde dehydrogenase 1A1.
Compound (4) (10 μM final concentration with 1% DMSO) was first incubated in Britton-Robinson buffer (pH 5, 7.4 and 9) at 37° C. for 2, 3 and 4 hrs. Then the pH's were adjusted to 7.4. Luminescence was measured by blocking excitation light and measuring emissions with 660 nm gating. Total volume of the reaction mixture was maintained at 100 μL. To the 50 μL of this reaction mixture was ATP-MgSO4 (45 μL, prepared by mixing 17.78 mM ATP-Mg and 35.56 mM MgSO4 in 1:1 ratio in PBS buffer) and the reaction was initiated with Luciferase (5 μL, 0.25 mg/mL in PBS containing 10% glycerol).

In a further series the test system is A549-Luc2 tumors. The experiment in a line: BL imaging of tumor hypoxia in a lung cancer model. In kind it is in vivo, NU/J mice. The note with it: 2.2 μmol/kg. The method, then: NU/J mice (male, ˜5-weeks old) were inoculated with A549-Luc2 lung cancer cells (5×10^6) in both flanks. Testing of BL660-NTR commenced after tumors had grown to a volume of ˜300 mm^3 (˜4 weeks). First, we performed imaging using BL660-NTR, which was administered systemically via retroorbital injection (ROI) (FIG. 5a (upper horizontal row of points) and FIG. 14). ROIs were drawn around each tumor and the luminescent count was summed for each animal. […] The BL intensity appears to decrease slightly after 15 mins and levels off until the end of the experiment (75 mins) (FIG. 5c).
Next, to distinguish between NTR activation and off-target ester hydrolysis, we employed Compound (4) as a control reagent, which only differs in that the nitro trigger is absent (FIG. 1a). After approximately 20 hours, the same animals were treated with Compound (4) and imaged (FIG. 5b and FIG. 15). This delay was to ensure the probe had fully cleared from the first experiment. […] The total luminescent count after 15 mins for Compound 4 was only 4.0±0.7×10^3; whereas the corresponding readout was 16.6±2.5×10^3 for BL660-NTR. This represents a […] difference, indicating successful detection of tumor hypoxia (FIG. 5d).
NU/J mice bearing A549-Luc2 tumors were anesthetized using isoflurane (1-3% for maintenance; up to 5% for induction) in oxygen from a precision vaporizer. After testing to ensure animals are fully under anesthesia, an initial background scan is recorded. BL660-NTR or compound 4 formulated in 3:7 v/v DMSO:PBS. The solution was filtered through a […] sterile filter immediately prior to use. The typical injection volume is ˜100 μM at a dose of 2.2 μmol/kg. The solution was then administered via retroorbital injection. Images were captured using the IVIS® imaging system at 5, 15, 30, 45, 60, and 75 minutes after injection. Bioluminescence light was collected in open mode (no filters were applied). Regions of interest (“ROIs”) were drawn around each tumor and summed for each animal. The signal intensity was quantified using the Living Image Analysis Software and is represented in FIGS. 5c and 5d.
Generation of a Subcutaneous Lung Cancer Model: A549 cells were treated with vehicle (media only) or 50 μM DETA NONOate in media for 10 days. Cells were washed with PBS, resuspended in serum-free media (Hams F-12K), and mixed 1:1 with Geltrex (v/v) (to a final concentration of 5×10^7 cells/mL). Tumors were generated by subcutaneously injecting 100 μL of these cell solutions into the flanks of 4-week-old Nu/J mice (The Jackson Laboratory stock #: 002019).
BL660-NTR was dissolved in DMSO and diluted with PBS (3:7 v/v DMSO:PBS). The solution was filtered through a […] sterile filter immediately prior to use. The typical injection volume is ˜100 μM at a dose of 2.2 μmol/kg.
Compound 4 was dissolved in DMSO and diluted with PBS (3:7 v/v DMSO:PBS). The solution was filtered through a […] sterile filter immediately prior to use. The typical injection volume is ˜100 μM at a dose of 2.2 μmol/kg.

Series [2] in a line: Hydrolytic stability of BL660 esters in PBS, luciferase BL readout. The class given is physicochemical. As to conditions: PBS pH 7.4, 37° C.; versus Compound (1). The method, then: We began our analysis of stability by incubating BL660 esters of Compound (1), Compound (2), and Compound (3) at 37° C. in PBS (phosphate-buffered saline) (pH 7.4). After 1, 6, and 12 hours, luciferase was added (10mU, 37° C., pH 7.4) to initiate BL production. The rate of hydrolysis, reported as total luminescence counts per hour, indicates hydrolysis in descending order is: Compound (1) (13.9±1.4×10^3); Compound (2) (3.3±0.6×10^3), and Compound (3) (1.0±0.1×10^3) (FIG. 1b, wherein the esters are indicated on the horizontal axis) and FIG. 8 (wherein the respective timeline plots are identified beneath the horizontal axis as (1), (2), etc.). Luminescent counts were recorded using an IVIS In Vivo Imaging System. […] Without wishing to be bound by any theory, we speculate hydrolysis of (3) may involve an SN1 mechanism, thus favoring formation of a double benzylic carbocation.

A further series has as its system 4T1-Luc cells. The experiment in a line: Ester stability in live 4T1-Luc cells, BL imaging. The class given is cell-based, murine. The note with it: 10 μM, 30 mins at 37° C. The method, then: First, we prepared BL660-Me, a methyl ester derivative of BL660 as shown in FIG. 2a for comparison to the benzyl ester (4) of FIG. 1a. Next, we cultured 4T1 murine breast cancer cells, stably expressing the luciferase enzyme (4T1-Luc). The cells were then treated with a DMSO (dimethyl sulfoxide) vehicle control, BL660-Me or Compound (4) (FIG. 3a and FIG. 10a, b, c respectively?). Imaging was performed using the IVIS In Vivo Imaging System.
4T1-Luc cell was cultured in phenol red-free RPMI 1640 (ATCC) with 10% fetal bovine serum (FBS, Sigma Aldrich), and 1% penicillin/streptomycin (Corning).
Evaluation of BL660-Me and 4 in 4T1-Luc Cells. 4T1-Luc cells (180K) were seeded into 24-well plates and incubated for 24 hours. The cells were ˜85% confluent. The media was removed and replaced with serum-free RPMI 1640. An initial background scan was recorded on an IVIS imaging system in open mode where no filters were applied. Cells were then treated with DMSO (2.5 μL, 0.5%), BL660-Me, or compound 4 in DMSO (10 μM final concentration). After 30 minutes incubation at 37° C., bioluminescence was collected. ROIs were drawn around each well. The total luminescence count for each well for a given condition was averaged. The signal intensity was quantified using the Living Image Analysis Software.

The subject of series [3] is lipase, human carboxyesterase-2, monoacylglycerol lipase, fatty acid amide hydrolase, and aldehyde dehydrogenase 1A1. The experiment in a line: Enzyme selectivity assay for Compound 4 against panel of ester-cleaving enzymes. As to conditions: 5 μM, 10 mU of each enzyme (ALDH 1A1 100 nM), 37° C. The class given is in vitro ADME. The protocol:
as §1
Enzyme Selectivity Assay for Compound 4. […] Compound 4 was incubated with 10 mU of each enzyme at 37° C. for 30 min before ATP-MgSO4 and luciferase were added to initiate bioluminescence production. […] ALDH 1A1 was used at a final concentration of 100 nM.

The subject of a further series is porcine liver esterase. The experiment in a line: Esterase reactivity: treatment with porcine liver esterase, BL readout. The class given is in vitro ADME. The note with it: porcine liver esterase 0.1 units/mL; versus Compound (1). From the text:
The enzymatic rates, reported as total luminescence counts per minute, in descending order are: Compound (1) (31.0±6.8×10^2), (3) (9.5±1.2×10^2), and (2) (0.6±0.1×10^2) (FIG. 1c and FIG. 9). The greater stability imparted by the aromatic ring is not surprising since esterase reactivity can be readily attenuated with bulkier substituents.

As for `CCN(CC)c1ccc(C=CC=CC2=NC(C(=O)OC(c3ccccc3)C(C)C)CS2)cc1` (stereo not drawn) [Compound (4)], the “rate of hydrolysis at pH 5.0” value in series [1] (Britton-Robinson buffer pH 5.0, 37° C., 2, 3 and 4 hrs) is 25.7±9.6×10^2 total luminescence counts per hour. Besides, the “rate of hydrolysis at pH 7.4” value in series [1] (Britton-Robinson buffer pH 7.4, 37° C., 2, 3 and 4 hrs) is given as 8.6±1.3×10^2 total luminescence counts per hour. In series [1] (Britton-Robinson buffer pH 9.0, 37° C., 2, 3 and 4 hrs), the “rate of hydrolysis at pH 9.0” value is listed as 52.8±20.7×10^2 total luminescence counts per hour. For the same molecule, the “BL signal in the tumors (in words)” value in the series on A549-Luc2 tumors (5 to 75 min after retroorbital injection) is “barely discernable from background”. Further, the “total luminescent count in tumors after 15 mins” value in the series with A549-Luc2 tumors (15 mins after retroorbital injection, NU/J mice with A549-Luc2 tumors) was 4.0±0.7×10^3 total luminescent count. Besides, in series [2], the “resistance to hydrolysis relative to the parent benzyl ester” value is recorded as “about 140 fold”. Moreover, in the series with 4T1-Luc cells, the total luminescence count is recorded as 3.1±1.2×10^3 total luminescence count. Besides, the “activation on exposure to ester-cleaving enzymes” value in series [3] is reported as “minimal activation”. In addition, the “esterase stability relative to the parent benzyl ester” value with porcine liver esterase is reported as “about 68 fold”.

(Values after patent US20240158359A1, “HYDROLYSIS-RESISTANT ESTERS FOR DRUG AND IMAGING AGENT DELIVERY” (The Board of Trustees of the University of lllinois, priority 2022, published 2024).)
